In article PMC6173770, “Direct electrical quantification of glucose and asparagine from bodily fluids using nanopores” (Nature Communications, 2018) one finds Kd data, which are given here for one compound.

This assay deals with T1, SBD1 (Lactococcus lactis, UniProt Q9CES5).
T1 construct: gene glnP; His tag cleaved off by TEV; expressed in E. coli MC1061; SEC purified
T1 sequence (Q9CES5 27-251 limits assumed): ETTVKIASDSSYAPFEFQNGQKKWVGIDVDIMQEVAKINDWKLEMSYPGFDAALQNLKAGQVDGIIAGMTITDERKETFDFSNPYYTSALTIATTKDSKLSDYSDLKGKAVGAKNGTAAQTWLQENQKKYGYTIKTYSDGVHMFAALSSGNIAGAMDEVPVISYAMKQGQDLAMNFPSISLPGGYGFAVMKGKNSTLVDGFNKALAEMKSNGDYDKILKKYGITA
The experiment in a line: single-molecule nanopore current (SBD1 trapped in ClyA-AS), closed fraction vs ligand, Hill fit n = […]. The class given is binding. The following applies: 150 mM NaCl, 15 mM Tris-HCl, pH 7.5, 25 °C, -90 mV, asparagine in trans; read-out: Kd^app.

For `NC(=O)C[C@H](N)C(=O)O` [asparagine], the Kd turned out to be 0.5 ± 0.04 µM.
